Experimental data taken from patent US8536221B2, “Amide derivatives as positive allosteric modulators and methods of use thereof” (AbbVie Inc., priority 2008, dated 2013).

Key:
[1] = tested on: formalin-induced nociceptive behavior in mice; assay: Formalin-induced persistent nociceptive behavior assay; type: in vivo; conditions: 20-45 minutes post formalin injection, 10 mg/kg subcutaneously 10 minutes prior to formalin, versus vehicle
Experimental: FIG. 3 is a graphical representation of nocifensive response (licking duration) following treatment with vehicle or a PAM (Example 6) followed by exposure to formalin in mice. […] In Phase II (20-45 minutes post formalin injection) a significant reduction (55%) in licking behavior was observed, indicative of pain relief in this time period.
(iv) Formalin-Induced Persistent Nociceptive Behavior Assay
Nociception was assessed using the formalin test. The mice were placed in open plexiglass observation chambers for 30 minutes to allow them to acclimate to their surroundings; then they were removed for formalin administration. Mice were gently restrained while the dorsum of the hind paw was injected with 20 μL of 2.5% formalin into the plantar surface of the right hind paw with a 30-gauge needle. The animals were returned to the chambers and nociceptive behavior was observed immediately after formalin injection. Mirrors were placed in each chamber to enable unhindered observation. Nociceptive behavior was quantified as the time licking the injected paw for continuous 5 minutes (phase I) and 20-45 minutes (phase II), following formalin injection. Formalin-induced flinching/licking behavior was biphasic. The initial acute phase (phase I, 0-5 minutes) was followed by a relatively short quiescent period, which was then followed by a prolonged tonic response (phase II, 20-45 minutes).

human α7 NNR = biological target: T1, human α7 NNR (Homo sapiens, UniProt P36544); assay: Two-electrode voltage-clamp in Xenopus laevis oocytes, potentiation of ACh-evoked α7 currents; type: cell-based; conditions: for degree of potentiation: 0.1 mM ACh-evoked α7 currents, normalized to reference PAM at 10 μM taken as 100%, submaximum ACh without PAM as 0%; for EC50: potentiating 0.1 mM ACh-evoked α7 currents in oocytes
T1 construct: expressed in transfected cells; host or cells: Xenopus laevis oocytes injected with cRNA
Experimental: FIG. 2 is a concentration response curve obtained in the same manner for a PAM (Example 10). […] Normalized PAM potentiation is plotted on the Y-axis as a function of the concentration of the test modulator (depicted along the X-axis).
(i) Two-Electrode Voltage-Clamp in Xenopus laevis Oocytes
X. laevis oocytes were prepared for electrophysiological experiments as described in the literature (see for example, Briggs. C. A., et al., Neutropharmacology, 1995, 34: 583-590; Briggs, C. A. et al., Neutropharmacology, 1998, 37: 1095-1102). In brief, three to four lobes from ovaries of female adult X. laevis frogs were removed and defolliculated after treatment with collagenase type IA (2 mg/mL; Sigma) prepared in low-Ca^2+ Barth's solution (90 mM NaCl, 1.0 mM KCl, 0.66 mM NaNO3, 2.4 mM NaHCO3, 10 mM H-IEPES, 2.5 mM sodium pyruvate, 0.82 mM MgCl2, and 0.5% (v/v) penicillin-streptomycin solution, pH=7.55, Sigma) for about 1.5 hours to about 2 hours at about 18° C. under constant agitation to obtain isolated oocytes. The oocytes were injected with about 4 ng to about 6 ng of human α7 NNR cRNA, kept at about 18° C. in a humidified incubator in modified Barth's solution (90 mM NaCl, 1.0 mM KCl, 0.66 mM NaNO3, 2.4 mM NaHCO3, 10 mM HEPES, 2.5 mM sodium pyruvate, 0.74 mM CaCl2, 0.82 mM MgCl2, 0.5% (v/v) penicillin-streptomycin solution, pH 7.55) and used about 2 to 7 days after injection. Responses were measured by two-electrode voltage clamp using a parallel oocyte electrophysiology test station (Abbott, Abbott Park, Ill.) (see for example, Trimbull, J. D., Maslana, E. S., McKenna, D. G., Nemcek, T. A., Niforatos, W., Pan, J. Y., Parihar, A. S., Shieh, C. C., Wilkins, J. A., Briggs, C. A., and Bertrand, D. High throughput electrophysiology using a fully automated, multiplexed recording system, Receptors Channels, 2003, 9: 19-28). During recordings, the oocytes were bathed in Ba^2+—OR2 solution (90 mM NaCl, 2.5 mM KCl, 2.5 mM BaCl2, 1.0 mM MgCl2, 5.0 mM HEPES, and 0.0005 mM atropine, pH 7.4) to prevent activation of Ca^2+-dependent currents and held at −60 mV at room temperature (about 20° C.). Test compounds were given for ˜60 seconds before agonist application and subsequently in the presence of 0.1 mM ACh.

α7 NNRs = α7 NNRs (Homo sapiens, UniProt P36544); conditions: IMR-32 cells
α7 NNRs, sequence (P36544 23-502): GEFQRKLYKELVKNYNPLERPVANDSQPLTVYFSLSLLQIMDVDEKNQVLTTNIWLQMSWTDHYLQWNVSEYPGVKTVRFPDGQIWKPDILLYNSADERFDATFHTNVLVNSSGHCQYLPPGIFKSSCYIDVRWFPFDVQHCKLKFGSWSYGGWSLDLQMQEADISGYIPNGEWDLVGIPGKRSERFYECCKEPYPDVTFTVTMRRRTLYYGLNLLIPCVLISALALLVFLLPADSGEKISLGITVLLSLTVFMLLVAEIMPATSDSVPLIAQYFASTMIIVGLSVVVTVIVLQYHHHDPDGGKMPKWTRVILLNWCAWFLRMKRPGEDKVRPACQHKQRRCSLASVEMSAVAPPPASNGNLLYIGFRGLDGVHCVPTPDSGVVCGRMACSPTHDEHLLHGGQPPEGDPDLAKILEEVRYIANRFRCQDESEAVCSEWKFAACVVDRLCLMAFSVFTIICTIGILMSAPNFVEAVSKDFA
Description: (ii) High-Throughput Calcium Flux Assays Using Cells Expressing Endogenous α7 NNRs
As such, PAMs and nicotinic acetylcholine receptor agonists can be identified by using IMR-32 cells that endogenously express various nicotinic receptors including α7 NNRs. […] Accordingly, allosteric modulator compounds described herein can be identified using a fluorescence-based throughput functional assay using cell lines such as IMR-32 neuroblastoma or primary dissociated neurons. […] Any suitable selective α7 agonist can be used.
IMR-32 neuroblastoma cells (ATCC) were grown to confluency in 162 cm^2 tissue culture flasks in minimum essential media supplemented with 10% FBS and 1 mM sodium pyruvate, 0.1 mM non-essential amino acids and 1% antibiotic-antimycotic. […] Calcium flux was measured using a calcium-3 assay kit (Molecular Devices, Sunnyvale, Calif.) or fluo-4. […] Fluorescence measurements were read simultaneously from all the wells by a Fluorometric Imaging Plate Reader (FLIPR) at an excitation wavelength of 480 nm and an emission wavelength of 520 nm. Baseline fluorescence was measured for the first 10 seconds at which 50 μL of 3× concentrations of modulator/test compounds were added to the cell plate and incubated for three to five minutes. The fluorescence intensity was captured every second for the first 1 minute followed by every 2-5 seconds for an additional two to four minutes. […]

T1 sequence (P36544 23-502): as above

Structure (SMILES) | reduction in licking behavior, Phase II [1] | degree of potentiation (human α7 NNR) | EC50 (human α7 NNR) | effect on calcium response elicited by agonist in the presence of allosteric modulator (α7 NNRs)
O=C(NCc1ccc2[nH]ccc2c1)c1ccc(OCC(F)(F)F)nc1 [Example 6, N-(1H-indol-5-ylmethyl)-6-(2,2,2-trifluoroethoxy)nicotinamide] | 55% |  |  | 
Cn1ccc2cc(CNC(=O)c3ccc(SC(F)(F)F)cc3)ccc21 [Example 10, N-[(1-methyl-1H-indol-5-yl)methyl]-4-[(trifluoromethyl)thio]benzamide] |  | 91% | 210 nM | 
Cn1ccc2ccc(CNC(=O)c3ccc(SC(F)(F)F)cc3)cc21 [Example 12, N-[(1-methyl-1H-indol-6-yl)methyl]-4-[(trifluoromethyl)thio]benzamide] |  | 99% | 1100 nM | 
CCN1C[C@]2(COC(=O)c3ccccc3N3C(=O)C[C@H](C)C3=O)CC[C@H](OC)[C@@]34[C@@H]5C[C@H]6[C@H](OC)[C@@H]5[C@](O)(C[C@@H]6OC)[C@@](O)([C@@H](OC)[C@H]23)[C@@H]14 [methyllycaconitine] |  |  |  | abolished the response
